# Measured values from patent publication US20250214993A1, “AROMATIC RING COMPOUND AND USE THEREOF” (SHANGHAI SHIJIANG BIOTECHNOLOGY CO., LTD, priority 2022, published 2025).
# Assays:
# Con-NCI-H82 cell = test: Cell viability (Promega CellTiter-Glo, intracellular ATP), IC50 on Con-NCI-H82 cell; format: cell-based; conditions: Homo sapiens; normal untreated NCI-H82 cell (control)
# Description: (§1) The expression of NNMT protein in NCI-H82 cell was overexpressed by inserting the NNMT gene into NCI-H82 cell using a viral vector, and the NNMT protein-overexpressing NCI-H82 cell (ov-NNMT NCI-H82 cell) was obtained. The normal and untreated NCI-H82 cell (Con-NCI-H82 cell) was used as control. The expressing content of NNMT protein in the ov-NNMT NCI-H82 cell and Con-NCI-H82 cell was detected using Western Blot assay (as shown in FIG. 1), it could be seen from FIG. 1 that the NNMT protein was overexpressed in the ov-NNMT NCI-H82 cell compared with the expression level of NNMT protein in the Con-NCI-H82 cell.
# (§2) The cell viability was detected using the Promega CellTiter-Glo kit which reflected cell viability by measuring intracellular ATP content. The Con-NCI-H82 cell and ov-NNMT NCI-H82 cell was cultured in 10% fetal bovine serum-containing RPMI1640 medium (+P/S).
# ov-NNMT NCI-H82 cell = test: Cell viability (Promega CellTiter-Glo, intracellular ATP), IC50 on NNMT-overexpressing NCI-H82 cell; format: cell-based; conditions: Homo sapiens; NCI-H82 cell overexpressing NNMT protein
# Description: as §1, §2
Compound,IC50 (ov-NNMT NCI-H82 cell) [nM],IC50 (Con-NCI-H82 cell) [nM]
O=C1c2cc(C(F)(F)F)ccc2CCC1[n+]1ccc2cn(Cc3ccccc3)cc2c1 (stereo not shown) [AB27288],2490,344
Cc1ccc(C(=O)C[n+]2ccc(NCc3cccc(C)n3)cc2C)cc1 [AB27328],8470,2800
Cc1ccc2c(c1)C(=O)C([n+]1cnc3c(c1)CCC(c1ccccc1)N3)CC2 (stereo not shown) [AB27137],12000,4360
CCCn1ccc2c[n+](C3CCc4ccc(C(F)(F)F)cc4C3=O)ccc21 (stereo not shown) [AB27150],3170,632
Cc1ccc2c(c1)C(=O)C([n+]1ccc3cn(Cc4ccccc4)cc3c1)CC2 (stereo not shown) [AB27287],2540,198
Cc1c(C)n(CC(=O)c2cccc(C(F)(F)F)c2)c2cc[n+](Cc3ccccc3)cc12 [AB27493],3450,281
CC(c1ccccc1)c1cn(C)c2c[n+](C3CCc4ccc(Cl)cc4C3=O)ccc12 (stereo not shown) [AB27186],5690,1990
Cc1ccc(C(=O)C[n+]2ccc3c(Cc4ccccc4)cn(C)c3c2)cc1 [AB27341],10500,3590
CC(c1ccccc1)[n+]1ccc2c(ccn2C2CCc3ccoc3C2=O)c1 (stereo not shown) [AB27205],9490,2790
Cc1c(Cl)c2c[n+](Cc3ccccc3)ccc2n1CC(=O)c1cccc(C(F)(F)F)c1 [AB27484],8030,1190
Cc1ccc(C(=O)C[n+]2cc3c(cc2Cl)c(Cc2ccccc2)cn3C)cc1 [AB27482],9570,3420
CCCC(=O)N(Cc1ccccc1)c1cc[n+](CC(=O)c2ccc(C)cc2)cc1 [AB27234],6960,1270
O=C1c2sc(Cl)nc2CCC1[n+]1ccc2c(ccn2Cc2ccccc2)c1 (stereo not shown) [AB27254],12700,3590
O=C(C[n+]1ccc2c(c1)CCC(c1ccccc1)N2)c1cccc(C(F)(F)F)c1 (stereo not shown) [AB27146],6790,1710
O=C(Cn1ccc2c[n+](Cc3ccccc3)ccc21)c1ccc(C(F)(F)F)cc1 [AB27264],2220,267
O=C(C[n+]1ccc(NCc2ccccc2)nc1)c1cccc(C(F)(F)F)c1 [AB27160],5490,744
O=C1c2cc(Cl)ccc2CCC1[n+]1ccc2c(ccn2S(=O)(=O)c2ccccc2)c1 (stereo not shown) [AB27215],10800,1610
CC(=O)C[n+]1ccc2c(ccn2C2CCc3ccc(Cl)cc3C2=O)c1 (stereo not shown) [AB27313],7360,4370
Cc1cn(C2CCc3ccc(OC(F)(F)F)cc3C2=O)c2cc[n+](C(C)c3ccccc3)cc12 (stereo not shown) [AB27469],5430,427
O=C(Cn1ncc2c[n+](Cc3ccccc3)ccc21)c1ccc(C(F)(F)F)cc1 [AB31705],19000,5370
O=C1c2ccc(OC(F)(F)F)cc2CCC1[n+]1ccc2cn(Cc3ccccc3)cc2c1 (stereo not shown) [AB27295],8480,717
Cc1cn(CC(=O)c2cccc(F)c2)c2cc[n+](C(C)c3ccccc3)cc12 (stereo not shown) [AB27479],2050,258
Cc1cn(C2CCc3ccc(C(F)(F)F)cc3C2=O)c2cc[n+](C(C)c3ccccc3)cc12 (stereo not shown) [AB27468],6030,571
O=C1c2cc(Cl)ccc2CCC1[n+]1ccc2c(ccn2C(=O)c2ccccc2)c1 (stereo not shown) [AB27214],6700,1740
CC(c1ccccc1)n1cc2cc[n+](C3CCc4ccc(F)cc4C3=O)cc2c1 (stereo not shown) [AB27480],2340,181
Cn1cc(Cc2ccccc2)c2cc[n+](C3CCc4ccc(OC(F)(F)F)cc4C3=O)cc21 (stereo not shown) [AB27339],2900,341
CCCn1ccc2c[n+](C3CCc4ccc(Cl)cc4C3=O)ccc21 (stereo not shown) [AB27253],5480,1680
Cc1ccc(C(=O)C[n+]2ccc3cn(Cc4ccccc4)cc3c2)cc1 [AB27296],3580,396
O=C1c2cc(Cl)ccc2CCC1[n+]1ccc2c(ccn2CC2CC2)c1 (stereo not shown) [AB27252],3690,968
O=C(C[n+]1ccc2c(ccn2C2CCc3ccc(Cl)cc3C2=O)c1)c1ccccc1 (stereo not shown) [AB27314],5580,3040

# These reach a lower IC50 (ov-NNMT NCI-H82 cell). Values come first.
IC50 (ov-NNMT NCI-H82 cell) [nM],Compound,IC50 (Con-NCI-H82 cell) [nM]
1980,O=C1c2cc(F)ccc2CCC1[n+]1ccc2cn(Cc3ccccc3)cc2c1 (stereo not shown) [AB27477],164
1860,Cc1ccc2c(c1)CCC([n+]1ccc3c(c1)c(C)cn3Cc1ccccc1)C2=O (stereo not shown) [AB27177],131
1840,Cc1ccc(C(=O)CN(CC(=O)c2ccc(C)cc2)c2cc[n+](Cc3ccccc3)cc2)cc1 [AB27299],674
1520,CCCCCn1ccc2c[n+](C3CCc4ccc(OC(F)(F)F)cc4C3=O)ccc21 (stereo not shown) [AB27249],222
1350,Cc1ccc(C(=O)CN(C)c2cc[n+](Cc3ccccc3)cc2)cc1 [AB27285],364
1320,Cc1ccc(C(=O)Cn2cc(C)c3c[n+](Cc4ccccc4)ccc32)cc1 [AB27268],104
1220,Cc1cc2c[n+](Cc3ccccc3)ccc2n1CC(=O)c1ccc(C(F)(F)F)cc1 [AB27357],74
1150,Cc1ccc(C(=O)C[n+]2ccc(NCc3ccccc3)cc2C2CC2)cc1 [AB27238],151
1040,Cc1ccc(C(=O)C[n+]2ccc(NCc3ccccc3)cc2C)cc1C [AB27327],67
1030,Cc1cn(C2CCc3ccc(OC(F)(F)F)cc3C2=O)c2cc[n+](Cc3ccccc3)cc12 (stereo not shown) [AB27465],160
1000,O=C(Cn1ccc2c[n+](Cc3ccccc3)ccc21)c1cccc(C(F)(F)F)c1 [AB27262],57
903,Cc1cccc(C(=O)Cn2cc(C)c3c[n+](Cc4ccccc4)ccc32)c1 [AB27267],113
864,O=C(Cn1ccc2c[n+](Cc3ccccc3)ccc21)c1ccc(OC(F)(F)F)cc1 [AB27265],123
684,CCCCCn1ccc2c[n+](C3CCc4ccc(Cl)cc4C3=O)ccc21 (stereo not shown) [AB27250],51
438,Cc1cn(C2CCc3ccc(F)cc3C2=O)c2cc[n+](Cc3ccccc3)cc12 (stereo not shown) [AB27460],34
342,O=C1c2cc(Cl)ccc2CCC1n1ccc2c[n+](Cc3cccc(Cl)c3)ccc21 (stereo not shown) [AB27244],24
322,O=C(Cn1ccc2c[n+](Cc3ccccc3)ccc21)c1cccc(OC(F)(F)F)c1 [AB27263],32
319,O=C(Cn1c(Br)cc2c[n+](Cc3ccccc3)ccc21)c1cccc(C(F)(F)F)c1 [AB27490],19
308,CCC(c1ccccc1)[n+]1ccc2c(ccn2C2CCc3ccc(Cl)cc3C2=O)c1 (stereo not shown) [AB27246],18
276,O=C(Cn1ccc2c[n+](Cc3ccccc3)ccc21)c1cccc(Cl)c1 [AB27258],14
222,CC(c1ccccc1)[n+]1ccc2c(ccn2C2CCc3ccc(F)cc3C2=O)c1 (stereo not shown) [AB27354],13
222,Cc1ccc2c(c1)C(=O)C(n1ccc3c[n+](C(C)c4ccccc4)ccc31)CC2 (stereo not shown) [AB27180],16
204,Cc1ccccc1C[n+]1ccc2c(ccn2C2CCc3ccc(Cl)cc3C2=O)c1 (stereo not shown) [AB27242],15
